From ChEMBL document CHEMBL3862031, “Design, synthesis and activity of novel sorafenib analogues bearing chalcone unit” (Bioorg Med Chem Lett, 2016) come the findings set out here.

The nature of test [1]: (§1) Cytotoxicity against human A549 cells after 72 hrs by MTT assay. Type of test: functional, cell-based. The settings on record: A549, 72 h. On the technique in general: Formazan colour is commonly taken as a measure of viable cells.
The nature of test [2]: (§2) Cytotoxicity against human HepG2 cells after 72 hrs by MTT assay. Type of test: functional, cell-based. The following applies: HepG2, 72 h.
A short description of test [3]: (§3) Cytotoxicity against human PC3 cells after 72 hrs by MTT assay. Format: functional, cell-based. The settings on record: PC-3, 72 h.
The nature of test [4]: (§4) Cytotoxicity against human MCF7 cells after 72 hrs by MTT assay. Type of test: functional, cell-based. The following applies: MCF7, 72 h.
The subject of another test is A549. Described as §1. Type of test: functional, cell-based.
Test [5] relates to HepG2. The description is as §2. Type of test: functional, cell-based.
The target in test [6] is Serine/threonine-protein kinase B-raf (Homo sapiens, UniProt P15056). Description: Inhibition of BRAF (unknown origin) using FAM-labeled peptide as substrate after 1 hr by Lanthascreen assay. In general terms: In TR-FRET formats the signal depends on donor and acceptor labels being close together.
In test [7] the test system is PC-3. The description is as §3. Type of test: functional, cell-based.
The subject of test [8] is MCF7. The test is described as §4. Format: functional, cell-based.
Test [9] concerns the target Vascular endothelial growth factor receptor 2 (Homo sapiens, UniProt P35968). The test is described as follows: Inhibition of VEGFR2 (unknown origin) using FAM-labeled peptide as substrate preincubated for 10 mins followed by substrate addition by mobility shift assay.
Test [10] relates to PC-3. The test is described as follows: Potency index, ratio of sorafenib IC50 to compound IC50 for human PC3 cells. Format: functional.
For test [11], the system named is MCF7. Description: Potency index, ratio of sorafenib IC50 to compound IC50 for human MCF7 cells. Type of test: functional.
In test [12] the test system is HepG2. Description: Potency index, ratio of sorafenib IC50 to compound IC50 for human HepG2 cells. Type of test: functional.

Sequence of Serine/threonine-protein kinase B-raf (P15056 whole entry): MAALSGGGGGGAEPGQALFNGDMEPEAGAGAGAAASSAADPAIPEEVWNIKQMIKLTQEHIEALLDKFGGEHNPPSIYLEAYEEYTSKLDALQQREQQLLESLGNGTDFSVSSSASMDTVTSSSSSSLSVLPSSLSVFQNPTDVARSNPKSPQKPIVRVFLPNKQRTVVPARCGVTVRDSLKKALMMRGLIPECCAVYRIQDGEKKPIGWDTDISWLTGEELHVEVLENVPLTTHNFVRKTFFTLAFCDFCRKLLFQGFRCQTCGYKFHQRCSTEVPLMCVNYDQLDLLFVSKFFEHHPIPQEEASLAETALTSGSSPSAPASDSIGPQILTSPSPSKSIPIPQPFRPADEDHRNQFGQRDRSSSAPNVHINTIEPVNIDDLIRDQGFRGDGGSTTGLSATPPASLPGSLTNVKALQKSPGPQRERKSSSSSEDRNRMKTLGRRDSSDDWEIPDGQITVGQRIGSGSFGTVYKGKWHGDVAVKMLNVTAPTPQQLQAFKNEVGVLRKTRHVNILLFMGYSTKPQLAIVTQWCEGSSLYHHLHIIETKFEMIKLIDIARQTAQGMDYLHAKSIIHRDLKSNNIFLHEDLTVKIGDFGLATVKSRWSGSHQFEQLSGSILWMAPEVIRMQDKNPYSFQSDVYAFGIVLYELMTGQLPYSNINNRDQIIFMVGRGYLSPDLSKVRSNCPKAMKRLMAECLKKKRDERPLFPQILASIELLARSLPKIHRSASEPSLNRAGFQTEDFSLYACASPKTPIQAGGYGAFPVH
Sequence of Vascular endothelial growth factor receptor 2 (P35968 whole entry): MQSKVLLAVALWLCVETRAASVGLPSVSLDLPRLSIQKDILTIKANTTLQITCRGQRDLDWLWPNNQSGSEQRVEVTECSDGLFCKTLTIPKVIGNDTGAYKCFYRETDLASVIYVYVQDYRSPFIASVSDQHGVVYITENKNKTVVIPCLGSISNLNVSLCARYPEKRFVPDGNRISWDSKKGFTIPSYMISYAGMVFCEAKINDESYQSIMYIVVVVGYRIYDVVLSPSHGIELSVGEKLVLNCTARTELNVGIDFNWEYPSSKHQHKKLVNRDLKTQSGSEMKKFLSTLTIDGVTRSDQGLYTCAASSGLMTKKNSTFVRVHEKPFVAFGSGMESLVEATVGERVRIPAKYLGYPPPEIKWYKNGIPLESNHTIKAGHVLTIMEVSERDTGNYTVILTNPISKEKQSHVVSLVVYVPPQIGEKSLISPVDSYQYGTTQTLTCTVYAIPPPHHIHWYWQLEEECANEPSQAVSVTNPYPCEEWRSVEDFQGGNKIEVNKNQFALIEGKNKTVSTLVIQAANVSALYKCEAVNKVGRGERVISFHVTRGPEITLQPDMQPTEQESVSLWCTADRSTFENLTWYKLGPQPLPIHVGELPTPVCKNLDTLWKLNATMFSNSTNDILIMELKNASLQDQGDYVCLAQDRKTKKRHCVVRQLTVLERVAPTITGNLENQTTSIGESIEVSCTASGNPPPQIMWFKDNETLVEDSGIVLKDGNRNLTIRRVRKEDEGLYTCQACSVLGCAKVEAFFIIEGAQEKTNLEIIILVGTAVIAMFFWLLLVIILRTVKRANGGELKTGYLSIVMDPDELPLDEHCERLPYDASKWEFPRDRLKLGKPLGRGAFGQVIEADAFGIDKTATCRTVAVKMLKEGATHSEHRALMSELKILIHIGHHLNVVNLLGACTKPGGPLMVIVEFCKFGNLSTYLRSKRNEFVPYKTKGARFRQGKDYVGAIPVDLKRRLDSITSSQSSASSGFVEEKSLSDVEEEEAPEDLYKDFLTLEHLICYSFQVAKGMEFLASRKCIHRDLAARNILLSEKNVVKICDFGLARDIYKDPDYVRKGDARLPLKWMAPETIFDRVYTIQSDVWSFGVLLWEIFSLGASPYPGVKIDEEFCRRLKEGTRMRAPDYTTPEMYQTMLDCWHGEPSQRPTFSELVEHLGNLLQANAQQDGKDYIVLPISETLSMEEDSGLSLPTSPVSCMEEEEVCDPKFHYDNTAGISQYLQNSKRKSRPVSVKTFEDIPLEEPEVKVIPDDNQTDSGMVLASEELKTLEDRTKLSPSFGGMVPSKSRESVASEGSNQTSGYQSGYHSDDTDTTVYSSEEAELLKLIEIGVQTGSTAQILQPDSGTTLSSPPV

The IC50 is the midpoint of a concentration-inhibition curve. As to `CNC(=O)c1cc(Oc2ccc(C(=O)/C=C/c3ccc(F)cc3Cl)cc2)ccn1`, the IC50 in [1] was 21.1 µM; in test [2], 7.32 µM; in test [3] it was 4.76 µM; in test [4] it was 21.1 µM.
`CNC(=O)c1cc(Oc2ccc(C(=O)/C=C/c3ccc(F)cc3)cc2)ccn1`: the IC50 amounted to 18.6 µM in [1], 12.6 µM in test [2], 6.14 µM in test [3] and 28.5 µM in [4].
Turning to `CNC(=O)c1cc(Oc2ccc(C(=O)/C=C/c3cccc([N+](=O)[O-])c3)cc2)ccn1`, the IC50 in [2] and in test [4] was greater than 50 µM in each case.
Turning to `CNC(=O)c1cc(Oc2ccc(/C=C/C(=O)c3ccc(C)cc3)cc2)ccn1`, the values for the 50% inhibitory concentration (IC50) in test [2] and in test [4] were greater than 50 µM and 24.9 µM, respectively.
On to `CNC(=O)c1cc(Oc2ccc(NC(=O)Nc3ccc(Cl)c(C(F)(F)F)c3)cc2)ccn1` [SORAFENIB], for which the IC50 in [1] was determined as 2.92 µM; in [2], 3.44 µM; in [3], 3.24 µM; in test [4], 3.18 µM.
`CNC(=O)c1cc(Oc2ccc(/C=C/C(=O)c3ccc([N+](=O)[O-])cc3)cc2)ccn1`: the IC50 stood at 41.4 µM in test [2] and 54.3 µM in [4].
In the case of `CNC(=O)c1cc(Oc2ccc(C(=O)/C=C/c3ccc(Cl)cc3Cl)cc2)ccn1`, the IC50 in [1] came to 9.46 µM; in test [2], 11.7 µM; in test [3] it was 9.22 µM; in test [4], 3.99 µM.
Regarding `CNC(=O)c1cc(Oc2ccc(C(=O)/C=C/c3ccc([N+](=O)[O-])cc3)cc2)ccn1`, the IC50 in [1] was greater than 50 µM; in test [3] it was 11.1 µM.
On to `CNC(=O)c1cc(Oc2ccc(C(=O)/C=C/c3cccc(Br)c3)cc2)ccn1`, for which the Activity result in the test on A549, in the test with HepG2 [5], in the test on PC-3 [7] and with MCF7 [8] was “Dose-dependent effect” in each case. The IC50 worked out at 9.94 µM in test [1]; 2.87 µM in [2]; 2900 nM in test [6]; 3.4 µM in test [3]; 10.4 µM in [4]; 720 nM in test [9].
Consider `CNC(=O)c1cc(Oc2ccc(C(=O)/C=C/c3ccc(C#N)cc3)cc2)ccn1`, for which the IC50 stood at 26.4 µM in [1], 5.43 µM in test [2], 3.87 µM in [3] and 9.52 µM in [4].
With `CNC(=O)c1cc(Oc2ccc(C(=O)/C=C/c3ccc(OC)cc3)cc2)ccn1`, the IC50 in test [1] and in test [3] was greater than 50 µM in each case.
Regarding `CNC(=O)c1cc(Oc2ccc(C(=O)/C=C/c3ccccc3)cc2)ccn1`, the IC50 stood at 5.04 µM in [1]; 6.64 µM in test [2]; 2400 nM in [6]; 3.17 µM in [3]; 5.96 µM in test [4]; 1100 nM in test [9]. For the same molecule, the “Ratio IC50” value in the test with PC-3 [10] was found to be 1.02.
With `CNC(=O)c1cc(Oc2ccc(C(=O)/C=C/c3cccc(Cl)c3Cl)cc2)ccn1`, the IC50 in test [1], in test [2] and in [3] was greater than 50 µM throughout.
`CNC(=O)c1cc(Oc2ccc(/C=C/C(=O)c3ccc(Cl)cc3)cc2)ccn1`: the concentration for half-maximal inhibition (IC50) in test [2] came out at 36.6 µM; in [4] it was 17.5 µM.
With `CNC(=O)c1cc(Oc2ccc(/C=C/C(=O)c3ccc(Br)cc3)cc2)ccn1`, the IC50 in test [1] was found to be 20.1 µM; in test [2], 22 µM; in test [3], 3.56 µM; in test [4] it was 7.1 µM.
For `CNC(=O)c1cc(Oc2ccc(C(=O)/C=C/c3ccc(Cl)c(Cl)c3)cc2)ccn1` the same measures were 33.7 µM, 11.4 µM, 8.26 µM and 13.2 µM.
In the case of `CNC(=O)c1cc(Oc2ccc(C(=O)/C=C/c3ccc(OC)c(OC)c3OC)cc2)ccn1`, the IC50 was 9.81 µM in [2] and 2.91 µM in test [4].
As to `CNC(=O)c1cc(Oc2ccc(/C=C/C(=O)c3ccc(F)cc3)cc2)ccn1`, the IC50 in test [2] was 12.3 µM; in [6] it was greater than 50000 nM; in test [4], 2.05 µM; in test [9], greater than 50000 nM. Besides, the “Ratio IC50” value with MCF7 [11] was 1.55.
As for `CNC(=O)c1cc(Oc2ccc(C(=O)/C=C/c3cc(OC)c(OC)c(OC)c3)cc2)ccn1`, the IC50 in [1] turned out to be 9.5 µM; in test [2], 0.56 µM; in test [6], 1800 nM; in [3], 3.15 µM; in test [4], 3.88 µM; in test [9], 3200 nM. Further, the “Ratio IC50” value with HepG2 [12] is given as 6.14; in the test with PC-3 [10], 1.03 - 6.14; in the test with MCF7 [11] it was 1.03 - 6.14.
Take `CNC(=O)c1cc(Oc2ccc(C(=O)/C=C/c3ccc(Br)cc3)cc2)ccn1`: the IC50 in [1] is greater than 50 µM; in [2] it was greater than 50 µM; in test [3], 18.5 µM; in [4] it was greater than 50 µM.
